# Reference: patent US20060198907A1, “Pharmaceutical, therapeutic, and dietary compositions derived from Lagerstroemia speciosa L. plant” (priority 2004, published 2006)
# Target: xanthine oxidase (Homo sapiens, UniProt P47989)
# Assay: Inhibition of xanthine oxidase activity
# Format: biochemical
# Conditions: observed by the inventors, in words
# xanthine oxidase, sequence (P47989 whole entry, species assumed): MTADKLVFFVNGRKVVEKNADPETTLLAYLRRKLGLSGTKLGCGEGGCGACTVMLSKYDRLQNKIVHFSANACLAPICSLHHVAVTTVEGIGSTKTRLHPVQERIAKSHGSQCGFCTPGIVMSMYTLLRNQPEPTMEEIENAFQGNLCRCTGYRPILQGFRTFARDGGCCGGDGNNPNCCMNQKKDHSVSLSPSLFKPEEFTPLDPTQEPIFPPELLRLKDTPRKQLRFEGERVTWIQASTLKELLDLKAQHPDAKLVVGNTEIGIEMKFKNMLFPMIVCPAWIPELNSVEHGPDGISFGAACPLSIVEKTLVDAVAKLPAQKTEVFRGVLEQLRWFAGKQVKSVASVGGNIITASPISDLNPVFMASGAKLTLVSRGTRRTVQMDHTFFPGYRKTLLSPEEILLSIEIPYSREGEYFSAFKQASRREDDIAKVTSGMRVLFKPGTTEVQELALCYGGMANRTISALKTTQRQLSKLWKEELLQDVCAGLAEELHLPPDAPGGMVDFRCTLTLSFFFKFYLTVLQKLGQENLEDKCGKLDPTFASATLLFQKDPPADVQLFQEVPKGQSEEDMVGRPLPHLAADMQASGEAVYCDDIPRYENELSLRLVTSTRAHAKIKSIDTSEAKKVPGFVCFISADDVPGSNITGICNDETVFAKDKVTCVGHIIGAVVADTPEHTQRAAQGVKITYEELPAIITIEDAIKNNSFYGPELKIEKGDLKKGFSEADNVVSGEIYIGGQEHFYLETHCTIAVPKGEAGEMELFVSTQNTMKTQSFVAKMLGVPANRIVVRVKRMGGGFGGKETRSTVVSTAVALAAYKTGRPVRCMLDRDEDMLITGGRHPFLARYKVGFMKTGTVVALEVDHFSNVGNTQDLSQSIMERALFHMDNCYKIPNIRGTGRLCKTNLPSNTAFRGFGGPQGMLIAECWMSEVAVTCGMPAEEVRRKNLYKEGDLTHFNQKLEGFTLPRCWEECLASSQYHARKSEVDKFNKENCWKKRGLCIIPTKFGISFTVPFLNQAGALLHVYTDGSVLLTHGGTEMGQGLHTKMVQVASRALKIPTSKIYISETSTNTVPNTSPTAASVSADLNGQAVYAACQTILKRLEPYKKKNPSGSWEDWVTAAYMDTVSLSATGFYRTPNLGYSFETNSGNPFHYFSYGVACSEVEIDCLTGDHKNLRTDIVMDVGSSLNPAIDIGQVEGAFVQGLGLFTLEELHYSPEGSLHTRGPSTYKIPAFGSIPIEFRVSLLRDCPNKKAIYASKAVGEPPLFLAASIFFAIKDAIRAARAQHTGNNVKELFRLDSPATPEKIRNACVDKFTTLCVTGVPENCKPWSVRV
structure (smiles),measurement,value
O=C(O)c1cc(O)c(O)c(O)c1Oc1cc2c(=O)oc3c(O)c(O)cc4c(=O)oc(c1O)c2c34 [valoneic acid dilactone],inhibition of xanthine oxidase activity,inhibition of xanthine oxidase activity
